Reference: BindingDB's records for doi:10.1021/jm200999f (Corning, 2011)

Molecular target: G-protein coupled receptor 35 (Homo sapiens, UniProt Q9HC97)
Experiment: Antagonist activity at GPR35 in human HT-29 cells assessed as inhibition of zaprinast-induced DMR by dynamic mass redistribution assay

G-protein coupled receptor 35, sequence (Q9HC97 whole entry): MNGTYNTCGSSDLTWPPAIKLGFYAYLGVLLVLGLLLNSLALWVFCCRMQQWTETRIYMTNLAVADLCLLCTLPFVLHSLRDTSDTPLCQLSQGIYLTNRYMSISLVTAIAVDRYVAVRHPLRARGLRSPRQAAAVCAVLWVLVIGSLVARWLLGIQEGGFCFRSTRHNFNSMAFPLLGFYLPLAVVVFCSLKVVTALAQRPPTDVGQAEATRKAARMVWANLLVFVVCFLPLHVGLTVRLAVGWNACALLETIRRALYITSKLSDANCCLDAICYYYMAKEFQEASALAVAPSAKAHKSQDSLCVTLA

CCCOc1ccccc1-c1nc2nn[nH]c2c(=O)[nH]1 [5-(2-propoxyphenyl)-2H,3H,7H-[1,2,3]triazolo[4,5-d]pyrimidin-7-one]
IC50: 10.5 µM
